Experimental findings from patent US20240285670A1, “THERAPEUTIC TREATMENT OF TUMORS BY BLOCKING THE HEME SYNTHESIS-EXPORT AXIS” (Università degli Studi di Torino, priority 2021, published 2024) are described below.

Common to all, as to type: cell-based, human
One data set relates to BTECs. Put plainly: Wound healing assay (BTECs migration). As to conditions: FLVCR1a-silenced vs scramble shRNA BTECs. An excerpt:
(A) BTECs counting, as a readout of cell proliferation, at the indicated time points. […] Data represent mean±SEM, n=4. For statistical analyses, a two-way analysis of variance was used, followed by the Bonferroni correction for multiple group comparisons; ***p<0.001. (B) Quantification of BTECs migration rate in wound-healing assay. […] Data represent mean±SEM, n=32. For statistical analyses, a nonparametric unpaired Mann-Whitney test was used; ***p<0.001. (C) In vitro tubulogenesis assay on matrigel. […] The number of nodes counted within the neo-formed vascular networks is shown. Data represent mean±SEM; n=10. For statistical analyses, a nonparametric unpaired Mann-Whitney test was used; **p<0.01.
To evaluate cell motility, BTECs were grown to confluence in 24-well plates coated with 1% Gelatin from bovine skin (Sigma-Aldrich, St. Louis, MO USA, catalog n° G9391). […] Cell migration into the wound was monitored using a Nikon Eclipse T-E microscope with a 4× objective. […] Three separate wells were used for each condition and, in each well, at least six fields were analysed for each condition. Cell migration into the wound was assessed using Fiji open source software (Schindelin et al., 2012) (http://fiji.sc/ RRID:SCR_002285), by measuring the distance between the two sides of the wound at each time point. Data were expressed as percentage of cell migration. […]

Data set [1] deals with Caco2 cells. Kind of data set: Proliferation of Caco2 cells (crystal violet staining, cell viability). As to conditions: FLVCR1a-silenced vs scramble shRNA Caco2 cells. From the text: (A) Proliferation of Caco2 cells assessed by crystal violet staining at the indicated days; bar=1000 μm. […] Staining quantification is reported in the bar graph as percentage of crystal violet stained area. Data represent mean±SEM, n=4. For statistical analyses, a two-way analysis of variance was used, followed by the Bonferroni correction for multiple group comparisons; *=p<0.05, ***=p<0.001. (B) Caco2 cells viability the day of plating (day 0) and three days after plaiting (day 3). The measure is considered a readout of cell proliferation. […] Data represent mean±SEM, n=3 wells. For statistical analyses, a two-way analysis of variance was used, followed by the Bonferroni correction for multiple group comparisons; *=p<0.05, **=p<0.01. (C, D, E) Representative flow cytometric analyses of apoptosis in synchronized Caco2 (C), SKCO1 (D) and C80 (E) cells. […]
To assess cell viability, the CellTiter-Fluor Cell Viability Assay (Promega, Madison, WI USA, catalog n°G6080) was used. […] The detection of cell viability at different consecutive time points was regarded as a readout of cell proliferation.
For crystal violet staining, 1*10^4 Caco2 cells were seeded in 6-well plates. […] Stained area was assessed by analyses of four representative photos per day for each triplicate using Fiji open source software (Schindelin et al., 2012) (http://fiji.sc/ RRID:SCR_002285).

Data set [2] concerns Caco2 cells. Put plainly: Mitochondrial ATP levels in Caco2 cells. As to conditions: FLVCR1a-silenced vs scramble shRNA Caco2 cells. An excerpt: (A, C, E) Activities of the mitochondrial electron transport chain complexes I-IV. FLVCR1a-silenced Caco2 (A), SKCO1 (C) or C80 cells (E) are compared to cells expressing a scramble shRNA. Results were expressed as nmol NAD^+/min/mg mitochondrial protein for complex I, nmol reduced cytochrome c/min/mg mitochondrial protein for complexes II-III, nmol oxidized cytochrome c/min/mg mitochondrial protein for complex IV. Data represent mean±SEM, n=3. For statistical analyses, an unpaired Student's t-test was used; *=p<0.05, **=p<0.01. (B, D, F) Mitochondrial ATP levels measured by a bioluminescent assay kit. FLVCR1a-silenced Caco2 (B), SKCO1 (D) or C80 cells (F) are compared to cells expressing a scramble shRNA. Results are expressed as nmol/mg mitochondrial proteins. […] Results were expressed as nmol NAD^+/min/mg mitochondrial protein for complex I, nmol reduced cytochrome c/min/mg mitochondrial protein for complexes II-III, nmol oxidized cytochrome c/min/mg mitochondrial protein for complex IV. […] (H) Mitochondrial ATP levels measured by a bioluminescent assay kit in Caco2 cells overexpressing FLVCR1a (indicated as FLVCR1a+) compared to cells stably transduced with an empty vector. Results are expressed as nmol/mg mitochondrial proteins. […]
ATP levels in mitochondria extracts were assessed by the ATP Bioluminescent Assay Kit (Sigma-Aldrich, St. Louis, MO USA, catalog n° FLAA). […]

For “FLVCR1a shRNA: shRNA specifically down-regulating FLVCR1a without targeting FLVCR1b; pLKO.1 lentiviral clone TRCN0000059599, antisense SEQ ID No.: 2 (antisense TTGCTAATGATGCTGTACTGG; sense CCAGTACAGCATCATTAGCAA)”, the migratory rate entry with BTECs is “reduction of the migratory rate”. Further, the cell proliferation entry with Caco2 cells [1] is on record as “proliferated more slowly”. Also, in the data set with Caco2 cells [2], the “ATP levels in mitochondria” value is “significantly higher ATP levels in mitochondria”.
